According to patent US8247211B2, “Glycopeptide antibiotics” (American Cyanamid Company, priority 2001, dated 2012):
Values after ≈ are worked out from the molar mass of the structure shown.

Assays:
Test in all cases: In vitro antibacterial evaluation: minimum inhibitory concentration (MIC), broth dilution method
Format in all cases: cell-based
Enterococcus sp. = conditions: 18 hours at 35° C.
How it was run: (§1)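 Following NCCLS approved standard M7-A2, compounds are serially diluted from 64 to 0.06 μg/mL in Muller-Hinton II […] and inoculated at 5×10^5 CFU/mL; the MIC is the minimum concentration at which growth is inhibited.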

Escherichia coli = conditions: 18 hours at 35° C.
How it was run: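 Values are minimum inhibitory concentrations, meaning the smallest antibiotic concentration that stops growth of the organism. They come from broth dilution in Muller-Hinton II […] per NCCLS guidance (M7-A2), using 5×10^5 CFU/mL and concentrations from 64 to 0.06 μg/mL.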

Staphylococcus sp. = conditions: for MIC Staphylococcus aureus (ATCC 29213): strain ATCC 29213; for MIC Staphylococcus aureus (GC 1131): strain GC 1131; for MIC Staphylococcus aureus (GC 4541): strain GC 4541; for MIC Staphylococcus aureus (GC 4542): strain GC 4542; for MIC Staphylococcus aureus-SMITH (GC 4543): strain GC 4543; for MIC Staphylococcus aureus (GC 4544): strain GC 4544; for MIC Staphylococcus aureus (GC 4545): strain GC 4545; for MIC Staphylococcus haemolyticus (GC 4546): strain GC 4546; for MIC Coagulase Negative Staphylococcus (GC 4547): strain GC 4547; for MIC Coagulase Negative Staphylococcus (GC 4548): strain GC 4548; for MIC Coagulase Negative Staphylococcus (GC 4549): strain GC 4549; for MIC Coagulase Negative Staphylococcus (GC 4551): strain GC 4551; for MIC Coagulase Negative Staphylococcus (ID-3941): strain ID-3941
How it was run: as §1

Streptococcus sp. = conditions: 18 hours at 35° C.
How it was run: as §1

[1] = broth dilution, inoculum 5×10^5 CFU/mL
[2] = broth dilution, 18 hours at 35° C.

CCCC(C)C1OCC2OC(OC3C(CO)OC(Oc4ccc(CC5NC(=O)C(C(C)c6ccc(Cl)cc6)NC(=O)CNC(=O)C(CO)NC(=O)C(C(O)C6CNC(=N)N6C6OC(CO)C(O)C(O)C6O)NC(=O)C(C(O)C6CNC(=N)N6)NC5=O)cc4)C(O)C3O)C(O)C(O)C2O1 (stereo not drawn) [Example 194, Cyclo[glycyl-4-chloro-β-methylphenylalanyl-O-[4-O-[4,6-O-(2-methylpentylidene)hexopyranosyl]hexopyranosyl]tyrosyl-3-(2-iminoimidazolidin-4-yl)seryl-3-(3-hexopyranosyl-2-iminoimidazolidin-4-yl)serylseryl]]
MIC Enterococcus avium (GC 4558) (Enterococcus sp.; Enterococcus avium (GC 4558)): 2 mg/L (≈ 1.42 µM)
MIC Enterococcus faecalis (ATCC 29212) (Enterococcus sp.; Enterococcus faecalis (ATCC 29212)): 2 mg/L (≈ 1.42 µM)
MIC Enterococcus faecalis (GC 2242) (Enterococcus sp.; Enterococcus faecalis (GC 2242)): 1 mg/L (≈ 0.708 µM)
MIC Enterococcus faecalis (GC 2691) (Enterococcus sp.; Enterococcus faecalis (GC 2691)): 2 mg/L (≈ 1.42 µM)
MIC Enterococcus faecalis (GC 3059) (Enterococcus sp.; Enterococcus faecalis (GC 3059)): 1 mg/L (≈ 0.708 µM)
MIC Enterococcus faecalis (GC 4552) (Enterococcus sp.; Enterococcus faecalis (GC 4552)): 1 mg/L (≈ 0.708 µM)
MIC Enterococcus faecalis (GC 4553) (Enterococcus sp.; Enterococcus faecalis (GC 4553)): 2 mg/L (≈ 1.42 µM)
MIC Enterococcus faecalis (GC 4554) (Enterococcus sp.; Enterococcus faecalis (GC 4554)): 1 mg/L (≈ 0.708 µM)
MIC Enterococcus faecalis (GC 6189) (Enterococcus sp.; Enterococcus faecalis (GC 6189)): 0.5 mg/L (≈ 0.354 µM)
MIC Enterococcus faecium (GC 2243) (Enterococcus sp.; Enterococcus faecium (GC 2243)): 1 mg/L (≈ 0.708 µM)
MIC Enterococcus faecium (GC 4556) (Enterococcus sp.; Enterococcus faecium (GC 4556)): 1 mg/L (≈ 0.708 µM)
MIC Enterococcus faecium (GC 4557) (Enterococcus sp.; Enterococcus faecium (GC 4557)): 2 mg/L (≈ 1.42 µM)
MIC Enterococcus avium (GC 4558) (Enterococcus sp.; [1]): 2 mg/L (≈ 1.42 µM)
MIC Enterococcus faecalis (ATCC 29212) (Enterococcus sp.; [1]): 2 mg/L (≈ 1.42 µM)
MIC Enterococcus faecalis (GC 2242) (Enterococcus sp.; [1]): 1 mg/L (≈ 0.708 µM)
MIC Enterococcus faecalis (GC 2691) (Enterococcus sp.; [1]): 2 mg/L (≈ 1.42 µM)
MIC Enterococcus faecalis (GC 3059) (Enterococcus sp.; [1]): 1 mg/L (≈ 0.708 µM)
MIC Enterococcus faecalis (GC 4552) (Enterococcus sp.; [1]): 1 mg/L (≈ 0.708 µM)
MIC Enterococcus faecalis (GC 4553) (Enterococcus sp.; [1]): 2 mg/L (≈ 1.42 µM)
MIC Enterococcus faecalis (GC 4554) (Enterococcus sp.; [1]): 1 mg/L (≈ 0.708 µM)
MIC Enterococcus faecalis (GC 6189) (Enterococcus sp.; [1]): 0.5 mg/L (≈ 0.354 µM)
MIC Enterococcus faecium (GC 2243) (Enterococcus sp.; [1]): 1 mg/L (≈ 0.708 µM)
MIC Enterococcus faecium (GC 4556) (Enterococcus sp.; [1]): 1 mg/L (≈ 0.708 µM)
MIC Enterococcus faecium (GC 4557) (Enterococcus sp.; [1]): 2 mg/L (≈ 1.42 µM)
MIC Escherichia coli (GC 4559) (Escherichia coli; Escherichia coli (GC 4559)): 32 mg/L (≈ 22.7 µM)
MIC Escherichia coli (GC 4560) (Escherichia coli; Escherichia coli (GC 4560)): 2 mg/L (≈ 1.42 µM)
MIC Staphylococcus aureus (ATCC 29213) (Staphylococcus sp.): 0.5 mg/L (≈ 0.354 µM)
MIC Staphylococcus aureus (GC 1131) (Staphylococcus sp.): 1 mg/L (≈ 0.708 µM)
MIC Staphylococcus aureus (GC 3051) (Staphylococcus sp.; strain GC 3051): 1 mg/L (≈ 0.708 µM)
MIC Staphylococcus aureus (GC 3053) (Staphylococcus sp.; strain GC 3053): 1 mg/L (≈ 0.708 µM)
MIC Staphylococcus aureus (GC 4541) (Staphylococcus sp.): 0.5 mg/L (≈ 0.354 µM)
MIC Staphylococcus aureus (GC 4542) (Staphylococcus sp.): 0.5 mg/L (≈ 0.354 µM)
MIC Staphylococcus aureus-SMITH (GC 4543) (Staphylococcus sp.): 0.5 mg/L (≈ 0.354 µM)
MIC Staphylococcus aureus (GC 4544) (Staphylococcus sp.): 2 mg/L (≈ 1.42 µM)
MIC Staphylococcus aureus (GC 4545) (Staphylococcus sp.): 1 mg/L (≈ 0.708 µM)
MIC Staphylococcus haemolyticus (GC 4546) (Staphylococcus sp.): 0.5 mg/L (≈ 0.354 µM)
MIC Coagulase Negative Staphylococcus (GC 4547) (Staphylococcus sp.): 1 mg/L (≈ 0.708 µM)
MIC Coagulase Negative Staphylococcus (GC 4548) (Staphylococcus sp.): 0.5 mg/L (≈ 0.354 µM)
MIC Coagulase Negative Staphylococcus (GC 4549) (Staphylococcus sp.): 0.5 mg/L (≈ 0.354 µM)
MIC Coagulase Negative Staphylococcus (GC 4551) (Staphylococcus sp.): 1 mg/L (≈ 0.708 µM)
MIC Coagulase Negative Staphylococcus (GC 6257) (Staphylococcus sp.; strain GC 6257): 0.5 mg/L (≈ 0.354 µM)
MIC Streptococcus agalactiae (GC 4564) (Streptococcus sp.; Streptococcus agalactiae (GC 4564)): <0.06 mg/L
MIC Streptococcus pneumoniae (ATCC 6301) (Streptococcus sp.; Streptococcus pneumoniae (ATCC 6301)): 0.25 mg/L (≈ 0.177 µM)
MIC Streptococcus pneumoniae (GC 1894) (Streptococcus sp.; Streptococcus pneumoniae (GC 1894)): 0.12 mg/L (≈ 0.085 µM)
MIC Streptococcus pneumoniae (GC 4565) (Streptococcus sp.; Streptococcus pneumoniae (GC 4565)): <0.06 mg/L
MIC Streptococcus pyogenes (GC 4563) (Streptococcus sp.; Streptococcus pyogenes (GC 4563)): <0.06 mg/L
MIC Streptococcus agalactiae (GC 4564) (Streptococcus sp.; [1]): <0.06 mg/L
MIC Streptococcus pneumoniae (ATCC 6301) (Streptococcus sp.; [1]): 0.25 mg/L (≈ 0.177 µM)
MIC Streptococcus pneumoniae (GC 1894) (Streptococcus sp.; [1]): 0.12 mg/L (≈ 0.085 µM)
MIC Streptococcus pneumoniae (GC 4565) (Streptococcus sp.; [1]): <0.06 mg/L
MIC Streptococcus pyogenes (GC 4563) (Streptococcus sp.; [1]): <0.06 mg/L

CCCCCCCC1OCC2OC(OC3C(CO)OC(Oc4ccc(CC5NC(=O)C(C(C)c6ccccc6)NC(=O)CNC(=O)C(CO)NC(=O)C(C(O)C6CNC(=N)N6C6OC(CO)C(O)C(O)C6O)NC(=O)C(C(O)C6CNC(=N)N6)NC5=O)cc4)C(O)C3O)C(O)C(O)C2O1 (stereo not drawn) [Example 109, Cyclo[glycyl-β-methylphenylalanyl-O-[4-O-(4,6-O-octylidenehexopyranosyl)hexopyranosyl]-tyrosyl-3-(2-iminoimidazoliclin-4-yl)seryl-3-(3-hexopyranosyl-2-iminoimidazolidin-4-yl)-serylseryl]]
MIC Enterococccus avium (GC 4558) (Enterococcus sp.; broth dilution, 5×10^5 CFU/mL): 2 mg/L (≈ 1.42 µM)
MIC Enterococccus faecalis (ATCC 29212) (Enterococcus sp.; broth dilution, 5×10^5 CFU/mL): 2 mg/L (≈ 1.42 µM)
MIC Enterococccus faecalis (GC 4552) (Enterococcus sp.; broth dilution, 5×10^5 CFU/mL): 2 mg/L (≈ 1.42 µM)
MIC Enterococccus faecalis (GC 4553) (Enterococcus sp.; broth dilution, 5×10^5 CFU/mL): 2 mg/L (≈ 1.42 µM)
MIC Enterococccus faecalis (GC 4554) (Enterococcus sp.; broth dilution, 5×10^5 CFU/mL): 2 mg/L (≈ 1.42 µM)
MIC Enterococccus faecium (GC 2243) (Enterococcus sp.; broth dilution, 5×10^5 CFU/mL): 1 mg/L (≈ 0.712 µM)
MIC Enterococccus faecium (GC 4556) (Enterococcus sp.; broth dilution, 5×10^5 CFU/mL): 2 mg/L (≈ 1.42 µM)
MIC Enterococccus faecium (GC 4557) (Enterococcus sp.; broth dilution, 5×10^5 CFU/mL): 1 mg/L (≈ 0.712 µM)
MIC Enterococcus faecalis (GC 2242) (Enterococcus sp.; broth dilution, 5×10^5 CFU/mL): 2 mg/L (≈ 1.42 µM)
MIC Escherichia coli (ATCC 25922) (Escherichia coli; 5×10^5 CFU/mL): 16 mg/L (≈ 11.4 µM)
MIC Staphylococcus aureus (ATCC 29213) (Staphylococcus sp.): 1 mg/L (≈ 0.712 µM)
MIC Staphylococcus aureus (ATCC 29213) (Staphylococcus sp.; [2]): 1 mg/L (≈ 0.712 µM)
MIC Staphylococcus aureus (GC 1131) (Staphylococcus sp.): 1 mg/L (≈ 0.712 µM)
MIC Staphylococcus aureus (GC 1131) (Staphylococcus sp.; [2]): 1 mg/L (≈ 0.712 µM)
MIC Staphylococcus aureus (GC 4541) (Staphylococcus sp.): 1 mg/L (≈ 0.712 µM)
MIC Staphylococcus aureus (GC 4541) (Staphylococcus sp.; [2]): 1 mg/L (≈ 0.712 µM)
MIC Staphylococcus aureus (GC 4542) (Staphylococcus sp.): 1 mg/L (≈ 0.712 µM)
MIC Staphylococcus aureus (GC 4542) (Staphylococcus sp.; [2]): 1 mg/L (≈ 0.712 µM)
MIC Staphylococcus aureus-SMITH (GC 4543) (Staphylococcus sp.; 18 hours at 35° C.): 1 mg/L (≈ 0.712 µM)
MIC Staphylococcus aureus-SMITH (GC 4543) (Staphylococcus sp.; [2]): 1 mg/L (≈ 0.712 µM)
MIC Staphylococcus aureus (GC 4544) (Staphylococcus sp.): 1 mg/L (≈ 0.712 µM)
MIC Staphylococcus aureus (GC 4544) (Staphylococcus sp.; [2]): 1 mg/L (≈ 0.712 µM)
MIC Staphylococcus aureus (GC 4545) (Staphylococcus sp.): 1 mg/L (≈ 0.712 µM)
MIC Staphylococcus aureus (GC 4545) (Staphylococcus sp.; [2]): 1 mg/L (≈ 0.712 µM)
MIC Staphylococcus haemolyticus (GC 4546) (Staphylococcus sp.): 1 mg/L (≈ 0.712 µM)
MIC Staphylococcus haemolyticus (GC 4546) (Staphylococcus sp.; [2]): 1 mg/L (≈ 0.712 µM)
MIC Coagulase Negative Staphylococcus (GC 4547) (Staphylococcus sp.): 1 mg/L (≈ 0.712 µM)
MIC Coagulase Negative Staphylococcus (GC 4547) (Staphylococcus sp.; [2]): 1 mg/L (≈ 0.712 µM)
MIC Coagulase Negative Staphylococcus (GC 4548) (Staphylococcus sp.): <0.5 mg/L
MIC Coagulase Negative Staphylococcus (GC 4548) (Staphylococcus sp.; [2]): <0.5 mg/L
MIC Coagulase Negative Staphylococcus (GC 4549) (Staphylococcus sp.): 1 mg/L (≈ 0.712 µM)
MIC Coagulase Negative Staphylococcus (GC 4549) (Staphylococcus sp.; [2]): 1 mg/L (≈ 0.712 µM)
MIC Coagulase Negative Staphylococcus (GC 4551) (Staphylococcus sp.): 1 mg/L (≈ 0.712 µM)
MIC Coagulase Negative Staphylococcus (GC 4551) (Staphylococcus sp.; [2]): 1 mg/L (≈ 0.712 µM)
MIC Coagulase Negative Staphylococcus (ID-3941) (Staphylococcus sp.): 1 mg/L (≈ 0.712 µM)
MIC Coagulase Negative Staphylococcus (ID-3941) (Staphylococcus sp.; [2]): 1 mg/L (≈ 0.712 µM)
MIC Streptococcus agalactiae (GC 4564) (Streptococcus sp.; broth dilution, 5×10^5 CFU/mL): <0.5 mg/L
MIC Streptococcus pneumoniae (GC 4565) (Streptococcus sp.; broth dilution, 5×10^5 CFU/mL): <0.5 mg/L
MIC Streptococcus pyogenes (ID-3187) (Streptococcus sp.; broth dilution, 5×10^5 CFU/mL): <0.5 mg/L
